The target in one assay is KRAS G12S (Homo sapiens (Human), UniProt P01116+P62937, G12S). The experiment in a line: Ras-Raf (BRAF RBD) disruption / FRET / MOA assay, KRAS G12S. Type of assay: biochemical. Particulars: Ras-Raf disruption/FRET/MOA assay; class symbols; read-out: KRAS G12S FRET data IC50. As for the experimental part: (§1) The purpose of this biochemical assay is to measure the ability of test compounds to facilitate ternary complex formation between a nucleotide-loaded Ras isoform and cyclophilin A; the resulting ternary complex disrupts binding to a BRAF^RBD construct, inhibiting Ras signaling through a RAF effector.
(§2) Compound is present in plate wells as a 10-point 3-fold dilution series starting at a final concentration of 30 μM. After incubation at 25° C. for 3 hours, a mixture of Anti-His Eu-W1024 and anti-GST allophycocyanin is then added to assay sample wells at final concentrations of 10 nM and 50 nM, respectively, and the reaction incubated for an additional 1.5 hours. […] Compounds that facilitate disruption of a Ras:RAF complex are identified as those eliciting a decrease in the TR-FRET ratio relative to DMSO control wells.
(§3) This protocol may also be executed substituting other Ras proteins or nucleotides.
(§4) The purpose of this biochemical assay was to measure the ability of test compounds to facilitate ternary complex formation between a nucleotide-loaded K-Ras isoform and Cyclophilin A; the resulting ternary complex disrupts binding to a BRAF^RBD construct, inhibiting K-Ras signaling through a RAF effector. Data is reported as IC50 values.
(§5) Compound was present in plate wells as a 10-point 3-fold dilution series starting at a final concentration of 30 μM. After incubation at 25° C. for 3 hours, a mixture of Anti-His Eu-W1024 and anti-GST allophycocyanin was then added to assay sample wells at final concentrations of 10 nM and 50 nM, respectively, and the reaction incubated for an additional 1.5 hours. […] Compounds that facilitate disruption of a K-Ras:RAF complex were identified as those eliciting a decrease in the TR-FRET ratio relative to DMSO control wells.

The target in the next assay is KRAS G12D (Homo sapiens (Human), UniProt P01116+P62937, G12D). The experiment in a line: Ras-Raf (BRAF RBD) disruption / FRET / MOA assay, KRAS G12D. Type of assay: biochemical. Particulars: Ras-Raf disruption/FRET/MOA assay; class symbols; read-out: KRAS G12D FRET data IC50. On the procedure: as §1, §2, §3, §4, §5

Data on 29 compounds can be found in patent US11566007B2, “Ras inhibitors” (Revolution Medicines, Inc., priority 2019, dated 2023).

Sequence of KRAS G12S (P01116-2 other isoform, or with tags, fused parts or gaps G12S): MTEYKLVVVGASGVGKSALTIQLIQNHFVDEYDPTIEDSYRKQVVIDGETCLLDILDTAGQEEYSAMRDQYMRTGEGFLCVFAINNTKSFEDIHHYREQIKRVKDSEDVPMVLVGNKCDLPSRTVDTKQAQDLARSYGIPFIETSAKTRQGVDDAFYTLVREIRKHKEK
Sequence of KRAS G12S (P62937 whole entry, canonical isoform): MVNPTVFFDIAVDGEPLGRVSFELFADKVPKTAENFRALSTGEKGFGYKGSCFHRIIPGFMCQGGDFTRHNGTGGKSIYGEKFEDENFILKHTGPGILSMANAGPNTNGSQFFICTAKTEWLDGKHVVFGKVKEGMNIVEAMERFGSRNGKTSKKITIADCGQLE
Sequence of KRAS G12D (P01116-2 other isoform, or with tags, fused parts or gaps G12D): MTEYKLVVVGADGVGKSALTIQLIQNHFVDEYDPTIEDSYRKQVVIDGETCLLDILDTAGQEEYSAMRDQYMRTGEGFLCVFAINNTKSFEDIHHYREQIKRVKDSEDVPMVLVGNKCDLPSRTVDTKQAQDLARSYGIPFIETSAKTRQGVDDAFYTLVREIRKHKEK
Sequence of KRAS G12D (P62937 whole entry): as the sequence (P62937 whole entry, canonical isoform) above

The IC50 is the concentration at which inhibition is half-maximal. `C=CC(=O)N1CC(C(=O)N(C)[C@H](C(=O)N[C@H]2Cc3cc(O)cc(c3)-c3ccc4c(c3)c(c(-c3cccnc3COC)n4CC)CC(C)(C)COC(=O)[C@@H]3CCCN(N3)C2=O)C(C)C)C1` (single isomer, unassigned) [Example A070]: the IC50 on KRAS G12S lay in the range of 100 to 1000 nM; at KRAS G12D, 1 to 10 µM. For `C=CC(=O)N1CC[C@H](C(=O)N(C)[C@H](C(=O)N[C@H]2Cc3cc(O)cc(c3)-c3ccc4c(c3)c(c(-c3ccccc3CN(C)C)n4CC)CC(C)(C)COC(=O)[C@@H]3CCCN(N3)C2=O)C(C)C)C1` [Example A005], in that order: 100 to 1000 nM and 1 to 10 µM. On to `C=CC(=O)N1CC[C@H](C(=O)N(C)[C@H](C(=O)N[C@H]2Cc3cc(O)cc(c3)-c3ccc4c(c3)c(c(-c3ccccc3CCOC)n4CC)CC(C)(C)COC(=O)[C@@H]3CCCN(N3)C2=O)C2CCOCC2)C1` [Example A006], for which the IC50 is 1000 to 10000 nM on KRAS G12S and greater than 10 µM on KRAS G12D. In the case of `C=CC(=O)N1CC[C@H](C(=O)N(C)[C@H](C(=O)N[C@H]2Cc3cc(OC(=O)CN)cc(c3)-c3ccc4c(c3)c(c(-c3ccccc3CCOC)n4CC)CC(C)(C)COC(=O)[C@@H]3CCCN(N3)C2=O)C(C)C)C1` [Example A008], the IC50 on KRAS G12S is 1000 to 10000 nM; on KRAS G12D, greater than 10 µM. `C=CC(=O)N1CC[C@H](C(=O)N(C)[C@H](C(=O)N[C@H]2Cc3cc(cc(O)c3F)-c3ccc4c(c3)c(c(-c3ccccc3CCOC)n4CC)CC(C)(C)COC(=O)[C@@H]3CCCN(N3)C2=O)C(C)C)C1` [Example A009]: the IC50 on KRAS G12S was greater than 10000 nM; at KRAS G12D, greater than 10 µM.

With `C=CC(=O)N1CC[C@H](C(=O)N(C)[C@H](C(=O)N[C@H]2Cc3cc(O)cc(c3)-c3ccc4c(c3)c(c(-c3ccc(CN5CCCC5)cc3)n4CC)CC(C)(C)COC(=O)[C@@H]3CCCN(N3)C2=O)C(C)C)C1` [Example A010], the IC50 was 1000 to 10000 nM at KRAS G12S and greater than 10 µM on KRAS G12D. Turning to `C=CC(=O)N1CCCN(C(=O)N(C)[C@H](C(=O)N[C@H]2Cc3cc(O)cc(c3)-c3ccc4c(c3)c(c(-c3ccccc3CCOC)n4CC)CC(C)(C)COC(=O)[C@@H]3CCCN(N3)C2=O)C(C)C)CC1` [Example A013], the IC50 on KRAS G12S was 1000 to 10000 nM; on KRAS G12D, greater than 10 µM. Consider `C=CC(=O)N1CCC(C(=O)N(C)[C@H](C(=O)N[C@H]2Cc3cc(O)cc(c3)-c3ccc4c(c3)c(c(-c3ccccc3CCOC)n4CC)CC(C)(C)COC(=O)[C@@H]3CCCN(N3)C2=O)C(C)C)CC1` [Example A014], for which the IC50 is 1000 to 10000 nM on KRAS G12S and greater than 10 µM on KRAS G12D. With `C=CC(=O)N1CC[C@H](C(=O)N(C)[C@H](C(=O)N[C@H]2Cc3cc(O)cc(c3)-c3ccc4c(c3)c(c(-c3ccccc3OC)n4CC)CC(C)(C)COC(=O)[C@@H]3CCCN(N3)C2=O)C(C)C)C1` [Example A017], the IC50 on KRAS G12S is 1000 to 10000 nM; at KRAS G12D it was greater than 10 µM. For the compound `C=CC(=O)N1CCN(C(=O)N(C)[C@H](C(=O)N[C@H]2Cc3cc(O)cc(c3)-c3ccc4c(c3)c(c(-c3ccccc3CCOC)n4CC)CC(C)(C)COC(=O)[C@@H]3CCCN(N3)C2=O)C(C)C)CC1` [Example A018], the IC50 was 1000 to 10000 nM at KRAS G12S and greater than 10 µM on KRAS G12D. For `C=CC(=O)N1CCC(F)(C(=O)N(C)[C@H](C(=O)N[C@H]2Cc3cc(O)cc(c3)-c3ccc4c(c3)c(c(-c3ccccc3CN(C)C)n4CC)CC(C)(C)COC(=O)[C@@H]3CCCN(N3)C2=O)C(C)C)CC1` [Example A020], in that order: 1000 to 10000 nM and greater than 10 µM. On to `C=CC(=O)N1CC[C@H](C(=O)N(C)[C@H](C(=O)N[C@H]2Cc3cc(O)cc(c3)-c3ccc4c(c3)c(c(-c3ccc(CC(=O)O)cc3)n4CC)CC(C)(C)COC(=O)[C@@H]3CCCN(N3)C2=O)C(C)C)C1` [Example A021], for which the IC50 is greater than 10000 nM on KRAS G12S and greater than 10 µM on KRAS G12D.

With `C=CC(=O)N1CC[C@H](C(=O)N(C)[C@H](C(=O)N[C@H]2Cc3cc(O)cc(c3)-c3ccc4c(c3)c(c(-c3ccccc3[C@H](C)OC)n4CC)CC(C)(C)COC(=O)[C@@H]3CCCN(N3)C2=O)C(C)C)C1` [Example A022], the IC50 was in the range of 100 to 1000 nM at KRAS G12S and 1 to 10 µM at KRAS G12D. For `C=CC(=O)N1CC[C@H](C(=O)N(C)[C@H](C(=O)N[C@H]2Cc3cccc(c3)-c3ccc4c(c3)c(c(-c3ccccc3CCOC)n4CC)CC(C)(C)COC(=O)[C@@H]3CCCN(N3)C2=O)C(C)C)C1` [Example A024], in that order: greater than 10000 nM and greater than 10 µM.

As for `C=CC(=O)N1CC[C@H](C(=O)N(C)[C@H](C(=O)N[C@H]2Cc3cc(O)cc(c3)-c3ccc4c(c3)c(c(-c3ccccc3COC)n4CC)CC(C)(C)COC(=O)[C@@H]3CCCN(N3)C2=O)C2CCCC2)C1` [Example A027], the concentration for half-maximal inhibition (IC50) on KRAS G12S is 100 to 1000 nM; at KRAS G12D, greater than 10 µM. For `C=CC(=O)N1CC[C@H](C(=O)N(C)[C@H](C(=O)N[C@H]2Cc3cc(O)cc(c3)-c3ccc4c(c3)c(c(-c3ccccc3[C@@H](C)OC)n4CC)CC(C)(C)COC(=O)[C@@H]3CCCN(N3)C2=O)C(C)C)C1` [Example A029], the IC50 at KRAS G12S is 100 to 1000 nM; on KRAS G12D, 1 to 10 µM.

With `C=CC(=O)N1CC[C@H](C(=O)N(C)[C@H](C(=O)N[C@H]2Cc3cc(O)cc(c3)-c3ccc4c(c3)c(c(-c3cccc(CN(C)C)c3)n4CC)CC(C)(C)COC(=O)[C@@H]3CCCN(N3)C2=O)C(C)C)C1` [Example A030], the IC50 on KRAS G12S is 1000 to 10000 nM; on KRAS G12D, greater than 10 µM. As for `C=CC(=O)N1CC2(CCN([C@H](C(=O)N[C@H]3Cc4cc(O)cc(c4)-c4ccc5c(c4)c(c(-c4ccccc4CCOC)n5CC)CC(C)(C)COC(=O)[C@@H]4CCCN(N4)C3=O)C(C)C)C2=O)C1` [Example A031], the IC50 at KRAS G12S was 1000 to 10000 nM; at KRAS G12D, greater than 10 µM. For `C=CC(=O)N1CC[C@H](C(=O)N(C)[C@H](C(=O)N[C@H]2Cc3cc(OC(=O)CCC(=O)O)cc(c3)-c3ccc4c(c3)c(c(-c3ccccc3CCOC)n4CC)CC(C)(C)COC(=O)[C@@H]3CCCN(N3)C2=O)C(C)C)C1` [Example A032], on KRAS G12D, the IC50 is greater than 10 µM. Same read-out and setting: the same measure for `C=CC(=O)N1CC[C@H](C(=O)N(C)[C@H](C(=O)N[C@H]2Cc3cc(O)cc(c3)-c3ccc4c(c3)c(c(-c3ccccc3CCOC)n4C(C)(C)C#N)CC(C)(C)COC(=O)[C@@H]3CCCN(N3)C2=O)C(C)C)C1` [Example A034]: 1 to 10 µM.

For `C=CC(=O)N1CC[C@H](C(=O)N(C)[C@H](C(=O)N[C@H]2Cc3cc(O)cc(c3)-c3ccc4c(c3)c(c(-c3ccc(C5CCN(C)CC5)cc3)n4CC)CC(C)(C)COC(=O)[C@@H]3CCCN(N3)C2=O)C(C)C)C1` [Example A039], the IC50 lay within 1000 to 10000 nM on KRAS G12S and 1 to 10 µM on KRAS G12D.

For `C=CC(=O)N1CC[C@H](C(=O)N(C)[C@H](C(=O)N[C@H]2Cc3cc(O)cc(c3)-c3ccc4c(c3)c(c(-c3ccc5c(c3)CCN(C)C5)n4CC)CC(C)(C)COC(=O)[C@@H]3CCCN(N3)C2=O)C(C)C)C1` [Example A040], the IC50 on KRAS G12S is 1000 to 10000 nM; at KRAS G12D, greater than 10 µM. For `C=CC(=O)N1C[C@H](C)[C@H](C(=O)N(C)[C@H](C(=O)N[C@H]2Cc3cc(O)cc(c3)-c3ccc4c(c3)c(c(-c3ccccc3CCOC)n4CC)CC(C)(C)COC(=O)[C@@H]3CCCN(N3)C2=O)C(C)C)C1` [Example A041], the results for the IC50 on KRAS G12S and on KRAS G12D were 100 to 1000 nM and greater than 10 µM, respectively. Consider `C=CC(=O)N1CC[C@H](C(=O)N(C)[C@H](C(=O)N[C@H]2Cc3cc(O)cc(c3)-c3ccc4c(c3)c(c(-c3cncc(C#N)c3)n4CC)CC(C)(C)COC(=O)[C@@H]3CCCN(N3)C2=O)C(C)C)C1` [Example A062], for which, at KRAS G12D, the IC50 was greater than 10 µM. For the compound `C=CC(=O)N1CC[C@H](C(=O)N(C)[C@H](C(=O)N[C@H]2Cc3cc(O)cc(c3)-c3ccc4c(c3)c(c(-c3cnccc3[C@H](C)OC)n4CC)CC(C)(C)COC(=O)[C@@H]3CCCN(N3)C2=O)C(C)C)C1` [Example A076], the half-maximal inhibitory concentration (IC50) on KRAS G12D was 0.1 to 1 µM. For `C=CC(=O)N1CC[C@H](C(=O)N(C)[C@H](C(=O)N[C@H]2Cc3cc(O)cc(c3)-c3ccc4c(c3)c(c(-c3cc(F)cnc3COC)n4CC)CC(C)(C)COC(=O)[C@@H]3CCCN(N3)C2=O)C(C)C)C1` [Example A082], the IC50 at KRAS G12D lay in the range of 1 to 10 µM.

Take `C=CC(=O)N1CC[C@H](C(=O)N(C)[C@H](C(=O)N[C@H]2Cc3cc(O)cc(c3)-c3ccc4c(c3)c(c(-c3cnccc3COC)n4CC)CC(C)(C)COC(=O)[C@@H]3CCCN(N3)C2=O)C(C)C)C1` [Example A091]: the IC50 on KRAS G12D lay in the range of 1 to 10 µM.

With `CCn1c(-c2cccnc2COC)c2c3cc(ccc31)-c1cc(O)cc(c1)C[C@H](NC(=O)[C@H](C(C)C)N(C)C(=O)[C@H]1CCN(C(=O)C#CCN(C)C)C1)C(=O)N1CCC[C@H](N1)C(=O)OCC(C)(C)C2` [Example A096], the IC50 on KRAS G12D was in the range of 1 to 10 µM. For `C=CC(=O)N1CC[C@H](C(=O)N(C)[C@H](C(=O)N[C@H]2Cc3cc(O)cc(c3)-c3ccc4c(c3)c(c(-c3ccccc3CO)n4CC)CC(C)(C)COC(=O)[C@@H]3CCCN(N3)C2=O)C(C)C)C1` [Examples A004], at KRAS G12D, the IC50 was greater than 10 µM.
